Results published in patent US10278931B2, “Composition for treatment of inflammatory bowel disease and atopic dermatitis” (INNOPHARMASCREEN INC., priority 2015, dated 2019).

Tests used:
HMC-1 cells = assay: Cytotoxicity (MTT-assay) in HMC-1 cells; assay type: cell-based, human
Description: (§1) (1) Cell culture: A human mast cell line (HMC-1) was cultured in an IMDM supplemented with 10% FBS at 37° C. and 5% CO2. Candidate materials were dissolved in DMSO, and then filtered using a 0.22 μm filter. The resulting candidate materials were diluted with DMSO and the HMC-1 cells were treated therewith.
[…] After culturing, the medium was replaced by a fresh medium, 5 mg/ml of an MTT solution was then added thereto, and the mast cells were incubated at 37° C. for 4 hours. 250 DMSO was added to the mast cells, MTT formazan was extracted therefrom, and absorbance of each well was measured at 540 nm using an ELISA reader.

TSLP mRNA = TSLP mRNA expression (RT-PCR) in HMC-1 cells; assay type: cell-based, human
Description: as §1
(5) Reverse transcription-polymerase chain reaction (RT-PCR) quantitative real time PCR: Total RNA was isolated from cells and tissues, and cDNA was synthesized using a reverse transcriptase and was then reacted with cytokine primers to be analyzed, followed by PCR and real-time PCR. The RT-PCR products were subjected to electrophoresis using 1.5% agarose gel for analysis.

caspase-1 = target: T1, caspase-1 (Homo sapiens, UniProt P29466); assay: Caspase-1 assay using HMC-1 cell extracts; assay type: cell-based
T1 construct: a caspase-1 assay was conducted using cell extracts; endogenous in cells; host or cells: HMC-1 (human mast cells)
T1 sequence (P29466 120-297 limits assumed): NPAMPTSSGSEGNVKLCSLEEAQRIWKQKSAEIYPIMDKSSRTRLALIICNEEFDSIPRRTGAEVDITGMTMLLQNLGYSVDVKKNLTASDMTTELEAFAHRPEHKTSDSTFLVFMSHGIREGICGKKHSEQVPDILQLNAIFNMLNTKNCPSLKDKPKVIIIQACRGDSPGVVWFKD
T1 sequence (P29466 317-404 limits assumed): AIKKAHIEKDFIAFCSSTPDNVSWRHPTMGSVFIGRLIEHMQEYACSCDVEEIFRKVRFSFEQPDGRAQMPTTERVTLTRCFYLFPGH

active caspase-1 = assay: Western blotting of active caspase-1 in HMC-1 cells; assay type: cell-based, human
Description: (6) Western blotting analysis: Cells were seeded in a 6-well plate and then treated with a drug, and after a certain period of time, the cells were harvested. After harvest, the cells were washed with PBS and then lysed. 50 μg of tissue protein and cell extract protein were subjected to electrophoresis on 12% gel, transferred to nitrocellulose paper, and then blocked with 6% bovine serum albumin for 2 hours. Each protein was reacted with a primary antibody overnight and washed with PBS-tween. Thereafter, the resulting protein was reacted with a secondary antibody for 2 hours, washed, and then detected using an ECL solution kit.

Cl.N=C(N)NC(=N)Nc1ccc(Cl)cc1 [IPS-07001]
cytotoxicity (MTT-assay) (HMC-1 cells; 10 μM): exhibited cytotoxicity | cytotoxicity (MTT-assay) (HMC-1 cells; up to 1 μM): no cytotoxicity | TSLP mRNA expression (TSLP mRNA): significantly inhibited | caspase-1 activity in HMC-1 cells (caspase-1): significantly inhibited | expression of active caspase-1 (active caspase-1): inhibited
